Source: patent publication US20260138959A1, “QUINAZOLINE DERIVATIVE COMPOUND AND USE THEREOF” (VORONOI INC., priority 2021, published 2026)

Experiments:
c-KIT V560G/D816V = experiment: Proliferation inhibitory activity on Ba/F3 cell (CellTiter-Glo, 72 hours), c-KIT V560G/D816V; assay type: cell-based; conditions: Mus musculus, BaF3, c-KIT V560G/D816V cells, read-out: Cell (nM) c-KIT V560G/D816V (GI50 class)
How it was run: (§1)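 Ba/F3 lines dependent on the indicated kinase, seeded at 3×10^3 cells/well, treated with 12 three-fold dilutions at 0.00005–10 μM final for 72 h at 37 °C. Viability read by CellTiter-Glo luminescence relative to DMSO vehicle; GI50 derived from curve fit.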

Ba/F3-c-KIT(D816V) = experiment: Proliferation inhibitory activity on Ba/F3 cell (CellTiter-Glo, 72 hours), c-KIT(D816V); assay type: cell-based; conditions: Mus musculus, BaF3, read-out: Ba/F3 (nM) c-KIT (D816V) (GI50 class)
How it was run: as §1

c-KIT D814Y = experiment: Proliferation inhibitory activity on Ba/F3 cell (CellTiter-Glo, 72 hours), c-KIT D814Y; assay type: cell-based; conditions: Mus musculus, BaF3, c-KIT D814Y cells, read-out: Cell (nM) c-KIT D814Y (GI50 class)
Experimental: (§2) Ba/F3-TEL-PDGFRα(WT), Ba/F3-TEL-PDGFβ(WT), Ba/F3-c-KIT(D816V) (Kyinno, #KC-0138), c-KIT V560G/D816V, c-KIT D814Y were seeded at 3×10^3/100 μl/well in a clear bottom white 96-well plate. A culture solution containing compounds of 12 concentrations (0.00001-2 mM) serially diluted in 3 folds and the DMSO control group was added at 0.5 μl/well each to a final concentration of 0.00005-10 μM, and then incubated in a CO2 incubator at 37° C. for 72 hours. After 72 hours, the plate treated with the compound was taken out, CellTiter-Glo® Assay (Promega) solution was treated with 100 μl/well, followed by mixing well. After mixing well for about 10 minutes at room temperature, […] was measured using a microplate reader. The data were presented as percentages in proportion to treated cells based on the vehicle, GI50 (nM) values were calculated using GraphPad Prism 8.3.0 (GraphPad software Inc., San Diego).
(§3) The inhibitory activities of Ba/F3 expressing PDGFR-α, PDGFR-β, c-KIT(D816V), c-KIT V560G/D816V, and c-KIT D814Y measured as described above were measured and shown in Table 7 below (A: GI50≤200 nM; B: 200 nM<GI50≤500 nM; C: GI50>500 nM).

human PDGFR-α(wt) = biological target: T1, human PDGFR-α(wt) (Homo sapiens, UniProt P16234); experiment: Enzyme inhibitory activity, ADP-Glo kinase assay, PDGFR-α(wt); assay type: biochemical; conditions: read-out: PDGFR-α (IC50 class)
T1 construct: purchased Signalchem P12-18G
Experimental: In order to evaluate the inhibitory activity of the compounds synthesized according to the above examples on PDGFR-α(wt), PDGFR-β(wt), c-KIT(wt), and c-KIT(D816V) kinases, the following method was performed. The compounds of examples were reacted with purified human PDGFR-α(wt) (Signalchem #P12-18G) enzyme, human PDGFR-β(wt) (Signalchem #P13-11G) enzyme, human c-KIT(wt) (Signalchem #K06-11BG) enzyme, human c-KIT(D816V) (Signalchem #C06-12LG) enzyme, and the enzyme inhibitory abilities were evaluated by the following method.
The reaction buffer was used as a composition of 40 mM Tris-HCl pH7.4, 20 mM MgCl2, 0.5 mg/ml BSA, 50 μM DTT, and the reactions of all the tests were carried out on the reaction buffer. The compound was diluted in 12 steps using a serial dilution method from a 10 mM DMSO stock, and the enzyme activity was measured at a final compound concentration of 10˜0.00005645 μM. During the test, the enzyme activity was confirmed using in vitro ADP-Glo™ kinase assay (Promega) after reacting with the proper concentration of human PDGFR-α(wt) enzyme, human PDGFR-β(wt), human c-KIT(wt) enzyme, and human c-KIT(D816V) enzyme with purified ATP and enzyme substrate at 25° C. for 1˜2 hours. At a ratio of 2:2:1, an enzyme-active reaction solution, an ADP-Glo reaction solution, and an enzyme-active detection solution were reacted to measure the inhibition of the enzyme's activity with luminoscence. Based on the […] of the enzyme activity of the solvent control that was not treated with the compound, the degree of enzyme activity inhibition was calculated according to the treatment concentration of each compound, and the concentration of each compound that inhibits 50% of enzyme activity was determined as IC50 (nM) value and the value was obtained by using GraphPad Prism 8.3.0 (GraphPad software Inc., San Diego) software. (A: IC50≤50 nM; B: 50 nM<IC50≤100 nM; C: 100 nM<IC50≤500 nM; D: IC50>500 nM).

Ba/F3-TEL-PDGFRα(WT) = experiment: Proliferation inhibitory activity on Ba/F3 cell (CellTiter-Glo, 72 hours), PDGFR-α; assay type: cell-based; conditions: Mus musculus, BaF3, read-out: Ba/F3 (nM) Tel-PDGFRα (GI50 class)
Experimental: as §2, §3

Ba/F3-TEL-PDGFβ(WT) = experiment: Proliferation inhibitory activity on Ba/F3 cell (CellTiter-Glo, 72 hours), PDGFR-β; assay type: cell-based; conditions: Mus musculus, BaF3, read-out: Ba/F3 (nM) Tel-PDGFRβ (GI50 class)
Experimental: as §2, §3

human PDGFR-β(wt) = biological target: T2, human PDGFR-β(wt) (Homo sapiens, UniProt P09619); experiment: Enzyme inhibitory activity, ADP-Glo kinase assay, PDGFR-β(wt); assay type: biochemical; conditions: read-out: PDGFR-β (IC50 class)
T2 construct: purchased Signalchem P13-11G
How it was run: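 Purified human kinases incubated with ATP and substrate 1–2 h at 25 °C in 40 mM Tris-HCl pH 7.4, 20 mM MgCl2, BSA, DTT, compound over 12 concentrations (10–0.00005645 μM final). ADP formed quantified by ADP-Glo luminescence; IC50 from inhibition versus DMSO control, reported in bins A–D.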

various kinases = experiment: Inhibitory activity against various kinases, DiscoverX scanMAX Kinase panel, % control at 1 μM; assay type: binding
Experimental: The activities of the compounds according to the present disclosure on various enzymes were evaluated. Specifically, it was commissioned DiscoverX to measure enzyme selectivity for the compounds of Examples 3, 9, and 83 above, and the experiment was conducted using a panel for scanMAX™ Kinase analysis. Herein, a solution prepared by dissolving in DMSO at a concentration of 1 μM was used as the drug treated with the enzyme, and the control percentage (% control) was determined by the method of Equation 1 below, and the results are shown in Table 8 below.
Herein, when the calculated percentage value for each enzyme was less than 35%, it was determined to have inhibitory activity for the enzyme. Accordingly, among the series of enzymes tested, the enzymes showing the inhibitory activities of the compounds of the present disclosure are summarized and shown in Table 8 below along with the control percentages thereof. (©): less than 10%; ◯: 10% or more to less than 35%).

T2 sequence (P09619 33-1106): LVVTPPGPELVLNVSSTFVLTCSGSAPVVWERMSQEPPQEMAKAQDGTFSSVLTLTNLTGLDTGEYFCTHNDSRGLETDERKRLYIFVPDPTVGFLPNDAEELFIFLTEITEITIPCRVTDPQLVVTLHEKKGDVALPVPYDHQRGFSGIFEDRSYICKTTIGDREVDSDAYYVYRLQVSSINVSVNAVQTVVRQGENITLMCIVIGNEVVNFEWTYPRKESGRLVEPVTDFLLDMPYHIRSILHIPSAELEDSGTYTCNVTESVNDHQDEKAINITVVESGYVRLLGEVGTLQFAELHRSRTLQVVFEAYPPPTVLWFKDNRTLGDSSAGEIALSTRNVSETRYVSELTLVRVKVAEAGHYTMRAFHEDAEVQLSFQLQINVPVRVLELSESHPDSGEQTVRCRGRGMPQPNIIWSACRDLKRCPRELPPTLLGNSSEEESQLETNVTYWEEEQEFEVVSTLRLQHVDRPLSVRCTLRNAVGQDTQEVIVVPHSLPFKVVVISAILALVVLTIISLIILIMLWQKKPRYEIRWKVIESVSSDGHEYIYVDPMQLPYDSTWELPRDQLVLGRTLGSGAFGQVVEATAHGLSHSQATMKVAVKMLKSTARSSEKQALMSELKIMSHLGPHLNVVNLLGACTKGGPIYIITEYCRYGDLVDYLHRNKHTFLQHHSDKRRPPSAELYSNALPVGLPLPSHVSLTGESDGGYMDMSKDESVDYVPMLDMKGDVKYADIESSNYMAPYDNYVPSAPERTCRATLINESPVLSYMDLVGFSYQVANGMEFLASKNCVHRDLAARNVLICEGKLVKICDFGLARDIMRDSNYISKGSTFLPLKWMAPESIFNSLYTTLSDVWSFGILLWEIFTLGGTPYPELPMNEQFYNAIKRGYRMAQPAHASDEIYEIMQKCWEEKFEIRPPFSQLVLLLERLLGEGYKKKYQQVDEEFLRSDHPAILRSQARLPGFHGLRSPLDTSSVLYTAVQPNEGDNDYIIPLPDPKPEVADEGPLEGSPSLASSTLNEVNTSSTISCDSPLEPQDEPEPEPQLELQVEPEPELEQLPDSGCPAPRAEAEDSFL
T1 sequence (P16234 24-1089): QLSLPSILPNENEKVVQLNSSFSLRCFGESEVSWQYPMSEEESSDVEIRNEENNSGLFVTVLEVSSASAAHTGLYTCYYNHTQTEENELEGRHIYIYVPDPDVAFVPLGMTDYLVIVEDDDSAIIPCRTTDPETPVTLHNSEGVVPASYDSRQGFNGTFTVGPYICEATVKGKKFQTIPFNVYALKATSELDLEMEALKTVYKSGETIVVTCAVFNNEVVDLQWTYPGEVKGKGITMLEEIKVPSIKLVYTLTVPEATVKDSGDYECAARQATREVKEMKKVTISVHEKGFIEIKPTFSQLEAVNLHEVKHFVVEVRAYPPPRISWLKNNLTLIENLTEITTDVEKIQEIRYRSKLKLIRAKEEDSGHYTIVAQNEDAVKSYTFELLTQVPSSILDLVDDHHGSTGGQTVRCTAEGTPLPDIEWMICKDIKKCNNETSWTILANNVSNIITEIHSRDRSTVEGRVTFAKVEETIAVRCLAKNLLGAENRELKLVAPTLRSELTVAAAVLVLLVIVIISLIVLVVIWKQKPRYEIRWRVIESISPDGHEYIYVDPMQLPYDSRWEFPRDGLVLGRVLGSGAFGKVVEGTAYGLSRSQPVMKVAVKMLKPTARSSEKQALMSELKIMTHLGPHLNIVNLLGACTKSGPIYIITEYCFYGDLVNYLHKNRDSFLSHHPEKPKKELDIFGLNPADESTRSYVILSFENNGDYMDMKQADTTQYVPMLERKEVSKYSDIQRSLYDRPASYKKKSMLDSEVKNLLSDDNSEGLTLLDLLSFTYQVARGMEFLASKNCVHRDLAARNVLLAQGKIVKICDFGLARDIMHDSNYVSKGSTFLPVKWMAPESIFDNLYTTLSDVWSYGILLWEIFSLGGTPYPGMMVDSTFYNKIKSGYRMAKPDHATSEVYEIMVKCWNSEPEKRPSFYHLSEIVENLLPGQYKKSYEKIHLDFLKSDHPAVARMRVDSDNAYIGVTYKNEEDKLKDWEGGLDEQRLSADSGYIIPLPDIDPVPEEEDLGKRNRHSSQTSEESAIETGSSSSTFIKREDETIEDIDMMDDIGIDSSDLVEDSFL

Row | GI50 (c-KIT V560G/D816V) | GI50 (Ba/F3-c-KIT(D816V)) | GI50 (c-KIT D814Y) | SMILES | also measured
1 | ≤ 200 nM | ≤ 200 nM | ≤ 200 nM | COc1cc2c(-c3ccc(NC(=O)Cc4ccc(C(F)(F)F)cc4)cc3)ncnc2cc1OCCCN1CC(N(C)C)C1 [Example 22, N-(4-(7-(3-(3-(dimethylamino)azetidine-1-yl)propoxy)-6-methoxyquinazolin-4-yl)phenyl)-2-(4-(trifluoromethyl)phenyl)acetamide] | –
2 | ≤ 200 nM | ≤ 200 nM | – | COc1cc2c(-c3ccc(NC(=O)Cc4ccc(C#N)cc4)cc3)ncnc2cc1OCCCN1CCN(C)CC1 [Example 83, 2-(4-cyanophenyl)-N-(4-(6-methoxy-7-(3-(4-methylpiperazin-1-yl)propoxy)quinazolin-4-yl)phenyl)acetamide] | IC50 (human PDGFR-α(wt)): ≤ 0.05 µM; GI50 (Ba/F3-TEL-PDGFRα(WT)): ≤ 200 nM; GI50 (Ba/F3-TEL-PDGFβ(WT)): ≤ 200 nM; IC50 (human PDGFR-β(wt)): ≤ 0.05 µM; control percentage (% control), KIT (various kinases; KIT): ⊚; control percentage (% control), KIT (A829P) (various kinases; KIT (A829P)): ⊚; control percentage (% control), KIT (D816H) (various kinases; KIT (D816H)): ⊚; control percentage (% control), KIT (D816V) (various kinases; KIT (D816V)): ⊚; control percentage (% control), KIT (L576P) (various kinases; KIT (L576P)): ⊚; control percentage (% control), KIT (V559D) (various kinases; KIT (V559D)): ⊚; control percentage (% control), KIT (V559D, T670I) (various kinases; KIT (V559D, T670I)): ◯ (◯: 10% or more to less than 35%); control percentage (% control), KIT (V559D, V654A) (various kinases; KIT (V559D, V654A)): ◯ (◯: 10% or more to less than 35%); control percentage (% control), PDGFRA (various kinases; PDGFRA): ⊚; control percentage (% control), PDGFRB (various kinases; PDGFRB): ⊚
3 | > 500 nM | ≤ 200 nM | > 500 nM | COc1cc2ncnc(-c3ccc(NC(=O)Cc4ccc(C(F)(F)F)cc4)cc3)c2cc1O[C@@H]1CCOC1 [Example 125, (R)-N-(4-(7-methoxy-6-((tetrahydrofuran-3-yl)oxy)quinazolin-4-yl)phenyl)-2-(4-(trifluoromethyl)phenyl)acetamide] | –
4 | ≤ 200 nM | ≤ 200 nM | ≤ 200 nM | COc1cc2ncnc(-c3ccc(NC(=O)Cc4ccc(C(F)(F)F)cc4)cc3)c2cc1OCCCN1CCN(C)CC1 [Example 126, N-(4-(7-methoxy-6-(3-(4-methylpiperazin-1-yl)propoxy)quinazolin-4-yl)phenyl)-2-(4-(trifluoromethyl)phenyl)acetamide] | –
5 | 200 to 500 nM | ≤ 200 nM | > 500 nM | COc1cc2ncnc(-c3ccc(NC(=O)Cc4ccc(C(F)(F)F)cc4)cc3)c2cc1OCC1CCCNC1 (stereo not shown) [Example 133, N-(4-(7-methoxy-6-(piperidin-3-ylmethoxy)quinazolin-4-yl)phenyl)-2-(4-(trifluoromethyl)phenyl)acetamide] | –
6 | ≤ 200 nM | ≤ 200 nM | ≤ 200 nM | CCN1CCCC(COc2cc3c(-c4ccc(NC(=O)Cc5ccc(C(F)(F)F)cc5)cc4)ncnc3cc2OC)C1 (stereo not shown) [Example 134, N-(4-(6-((1-ethylpiperidin-3-yl)methoxy)-7-methoxyquinazolin-4-yl)phenyl)-2-(4-(trifluoromethyl)phenyl)acetamide] | –
7 | 200 to 500 nM | ≤ 200 nM | ≤ 200 nM | COc1cc2ncnc(-c3ccc(NC(=O)Cc4ccc(C(F)(F)F)cc4)cc3)c2cc1OC1CNC1 [Example 138, N-(4-(6-(azetidin-3-yloxy)-7-methoxyquinazolin-4-yl)phenyl)-2-(4-(trifluoromethyl)phenyl)acetamide] | –
8 | 200 to 500 nM | ≤ 200 nM | ≤ 200 nM | CCN1CC(Oc2cc3c(-c4ccc(NC(=O)Cc5ccc(C(F)(F)F)cc5)cc4)ncnc3cc2OC)C1 [Example 144, N-(4-(6-((1-ethylazetidin-3-yl)oxy)-7-methoxyquinazolin-4-yl)phenyl)-2-(4-(trifluoromethyl)phenyl)acetamide] | –
9 | 200 to 500 nM | ≤ 200 nM | ≤ 200 nM | CCN1CCC(Oc2cc3c(-c4ccc(NC(=O)Cc5ccc(C(F)(F)F)cc5)cc4)ncnc3cc2OC)C1 (stereo not shown) [Example 145, N-(4-(6-((1-ethylpyrrolidin-3-yl)oxy)-7-methoxyquinazolin-4-yl)phenyl)-2-(4-(trifluoromethyl)phenyl)acetamide] | –
